Columns and labels:
Assay type in all cases: functional
Malme-3M = test: Growth inhibition of human MALME-3M cells incubated for 48 hrs by sulforhodamine B assay
MCF7 = test: Growth inhibition of human MCF7 cells incubated for 48 hrs by sulforhodamine B assay; conditions: MCF7, 48 h
TK-10 = test: Growth inhibition of human TK10 cells incubated for 48 hrs by sulforhodamine B assay; conditions: TK-10, 48 h
U-251 = test: Growth inhibition of human U251 cells incubated for 48 hrs by sulforhodamine B assay; conditions: U-251, 48 h
LOX IMVI = test: Growth inhibition of human LOXIMVI cells incubated for 48 hrs by sulforhodamine B assay
UACC-257 = test: Growth inhibition of human UACC257 cells incubated for 48 hrs by sulforhodamine B assay; conditions: UACC-257, 48 h; for CC50: read-out: LC50 (the source's name)
HCT-116 = test: Growth inhibition of human HCT116 cells incubated for 48 hrs by sulforhodamine B assay; conditions: HCT-116, 48 h
A498 = test: Growth inhibition of human A498 cells incubated for 48 hrs by sulforhodamine B assay; conditions: A498, 48 h; for CC50: read-out: LC50 (the source's name)
NCI-H522 = test: Growth inhibition of human NCI-H522 cells incubated for 48 hrs by sulforhodamine B assay; conditions: NCI-H522, 48 h; for CC50: read-out: LC50 (the source's name)
HCT-15 [1] = test: Growth inhibition of human HCT15 cells incubated for 48 hrs by sulforhodamine B assay; conditions: HCT-15, 48 h; for CC50: read-out: LC50 (the source's name)
RPMI-8226 = test: Growth inhibition of human RPMI8226 cells incubated for 48 hrs by sulforhodamine B assay; conditions: RPMI-8226, 48 h; for CC50: read-out: LC50 (the source's name)
PC-3 = test: Growth inhibition of human PC3 cells incubated for 48 hrs by sulforhodamine B assay; conditions: PC-3, 48 h
NCI-H226 = test: Growth inhibition of human NCI-H226 cells incubated for 48 hrs by sulforhodamine B assay; conditions: NCI-H226, 48 h; for CC50: read-out: LC50 (the source's name)
MDA-MB-435 = test: Growth inhibition of human MDA-MB-435 cells incubated for 48 hrs by sulforhodamine B assay; conditions: MDA-MB-435, 48 h
MDA-MB-468 [2] = test: Growth inhibition of human MDA-MB-468 cells incubated for 48 hrs by sulforhodamine B assay; conditions: MDA-MB-468, 48 h
NCI/ADR-RES [3] = test: Growth inhibition of human NCI/ADR-RES cells incubated for 48 hrs by sulforhodamine B assay; conditions: for CC50: read-out: LC50 (the source's name)
HCC 2998 = test: Growth inhibition of human HCC2998 cells incubated for 48 hrs by sulforhodamine B assay; conditions: HCC 2998, 48 h
A549 [4] = test: Growth inhibition of human A549/ATCC cells incubated for 48 hrs by sulforhodamine B assay; conditions: A549, 48 h
SK-MEL-2 [5] = test: Growth inhibition of human SK-MEL-2 cells assessed as cell growth at 10^-6 M incubated for 48 hrs by sulforhodamine B assay relative to control; conditions: SK-MEL-2, 48 h, read-out: Activity
NCI-H23 [6] = test: Growth inhibition of human NCI-H23 cells assessed as cell growth at 10^-4 M incubated for 48 hrs by sulforhodamine B assay relative to control; conditions: NCI-H23, 48 h, read-out: Activity
NCI-H23 [7] = test: Growth inhibition of human NCI-H23 cells assessed as cell growth at 10^-6 M incubated for 48 hrs by sulforhodamine B assay relative to control; conditions: NCI-H23, 48 h, read-out: Activity
MDA-MB-231 [8] = test: Growth inhibition of human MDA-MB-231 cells assessed as cell growth at 10^-8 M incubated for 48 hrs by sulforhodamine B assay relative to control; conditions: MDA-MB-231, 48 h, read-out: Activity
MDA-MB-231 [9] = test: Growth inhibition of human MDA-MB-231 cells assessed as cell growth at 10^-7 M incubated for 48 hrs by sulforhodamine B assay relative to control; conditions: MDA-MB-231, 48 h, read-out: Activity
HT-29 = test: Growth inhibition of human HT-29 cells assessed as cell growth at 10^-4 M incubated for 48 hrs by sulforhodamine B assay relative to control; conditions: HT-29, 48 h, read-out: Activity
SK-MEL-2 [10] = test: Growth inhibition of human SK-MEL-2 cells assessed as cell growth at 10^-8 M incubated for 48 hrs by sulforhodamine B assay relative to control; conditions: SK-MEL-2, 48 h, read-out: Activity
SF-539 [11] = test: Growth inhibition of human SF539 cells assessed as cell growth at 10^-8 M incubated for 48 hrs by sulforhodamine B assay relative to control; conditions: SF-539, 48 h, read-out: Activity
OVCAR-4 = test: Growth inhibition of human OVCAR4 cells assessed as cell growth at 10^-5 M incubated for 48 hrs by sulforhodamine B assay relative to control; conditions: OVCAR-4, 48 h, read-out: Activity
SNB-75 = test: Growth inhibition of human SNB75 cells assessed as cell growth at 10^-5 M incubated for 48 hrs by sulforhodamine B assay relative to control; conditions: SNB-75, 48 h, read-out: Activity
SF-539 [12] = test: Growth inhibition of human SF539 cells assessed as cell growth at 10^-5 M incubated for 48 hrs by sulforhodamine B assay relative to control; conditions: SF-539, 48 h, read-out: Activity
HOP-62 = test: Growth inhibition of human HOP62 cells assessed as cell growth at 10^-8 M incubated for 48 hrs by sulforhodamine B assay relative to control; conditions: HOP-62, 48 h, read-out: Activity
NCI/ADR-RES [13] = test: Growth inhibition of human NCI/ADR-RES cells assessed as cell growth at 10^-7 M incubated for 48 hrs by sulforhodamine B assay relative to control; conditions: read-out: Activity
A549 [14] = test: Growth inhibition of human A549/ATCC cells assessed as cell growth at 10^-6 M incubated for 48 hrs by sulforhodamine B assay relative to control; conditions: A549, 48 h, read-out: Activity
MDA-MB-468 [15] = test: Growth inhibition of human MDA-MB-468 cells assessed as cell growth at 10^-7 M incubated for 48 hrs by sulforhodamine B assay relative to control; conditions: MDA-MB-468, 48 h, read-out: Activity
HCT-15 [16] = test: Growth inhibition of human HCT15 cells assessed as cell growth at 10^-7 M incubated for 48 hrs by sulforhodamine B assay relative to control; conditions: HCT-15, 48 h, read-out: Activity
SK-MEL-5 = test: Growth inhibition of human SK-MEL-5 cells assessed as cell growth at 10^-5 M incubated for 48 hrs by sulforhodamine B assay relative to control; conditions: SK-MEL-5, 48 h, read-out: Activity
[17] = read-out: LC50 (the source's name)

In the case of `COc1cccc2c1C(=O)c1c(O)c3c(c(O)c1C2=O)C[C@@](O)(C(=O)CO)C[C@@H]3O[C@H]1C[C@H](N)[C@H](O)[C@H](C)O1` [DOXORUBICIN], the GI50 (Malme-3M) is reported as 120 nM, the GI50 (MCF7) is reported as 40 nM and the GI50 (TK-10) is reported as 380 nM. For the same compound, the GI50 (U-251) was 40 nM, the GI50 (LOX IMVI) was 70 nM and the GI50 (UACC-257) was 0.12 µM. For the same compound, the CC50 (UACC-257) was 740 nM, the GI50 (HCT-116) was 80 nM and the GI50 (A498) was 100 nM. It also gave a CC50 (A498) of 1900 nM, a GI50 (NCI-H522) of 30 nM and a CC50 (NCI-H522) of 2800 nM. It also gave a CC50 (HCT-15 [1]) of 100 µM, a GI50 (RPMI-8226) of 80 nM and a CC50 (RPMI-8226) of 100 µM. For the same compound, the GI50 (PC-3) was 320 nM, the GI50 (NCI-H226) was 50 nM and the CC50 (NCI-H226) was 6.4 µM. It also gave a GI50 (MDA-MB-435) of 250 nM, a GI50 (MDA-MB-468 [2]) of 50 nM and a CC50 (NCI/ADR-RES [3]) of 100 µM. It also gave a GI50 (HCC 2998) of 260 nM and a GI50 (A549 [4]) of 60 nM.

Compound `CCCCOc1nc2ccccc2cc1C1CNC(=O)c2ccccc2N1` (centres undefined) has a GI50 (Malme-3M) of 3580 nM, a TGI (Malme-3M) of 27 µM and a CC50 (Malme-3M; [17]) of 92 µM. For the same compound, the GI50 (MCF7) was 1730 nM, the TGI (MCF7) was 16.1 µM and the CC50 (MCF7; [17]) was greater than 100 µM. The GI50 (TK-10) was 4930 nM, the TGI (TK-10) was 21.6 µM and the CC50 (TK-10; [17]) was 73.8 µM. It also gave a growth at 1 µM (SK-MEL-2 [5]) of 86%, a growth at 100 µM (NCI-H23 [6]) of -26% and a GI50 (U-251) of 3030 nM. It also gave a TGI (U-251) of 13.7 µM, a CC50 (U-251; [17]) of 50.1 µM and a GI50 (LOX IMVI) of 2900 nM. The TGI (LOX IMVI) was 14.4 µM, the CC50 (LOX IMVI; [17]) was 47.3 µM and the growth at 1 µM (NCI-H23 [7]) was 91%. It also gave a GI50 (UACC-257) of 8.16 µM, a TGI (UACC-257) greater than 100 µM and a CC50 (UACC-257) greater than 100000 nM. The GI50 (HCT-116) was 1840 nM, the TGI (HCT-116) was 6.26 µM and the CC50 (HCT-116; [17]) was 44.7 µM. For the same compound, the GI50 (A498) was 390 nM, the TGI (A498) was 4.7 µM and the CC50 (A498) was greater than 100000 nM. For the same compound, the growth at 0.01 µM (MDA-MB-231 [8]) was 98%, the growth at 0.1 µM (MDA-MB-231 [9]) was 96% and the GI50 (NCI-H522) was 2390 nM. The TGI (NCI-H522) was 25.8 µM, the CC50 (NCI-H522) was greater than 100000 nM and the growth at 100 µM (HT-29) was -61%. The GI50 (HCT-15 [1]) was 1920 nM, the TGI (HCT-15 [1]) was 10.8 µM and the CC50 (HCT-15 [1]) was 48.6 µM. The growth at 0.01 µM (SK-MEL-2 [10]) was 96%, the GI50 (RPMI-8226) was 2860 nM and the TGI (RPMI-8226) was 25.1 µM. It also gave a CC50 (RPMI-8226) greater than 100 µM, a growth at 0.01 µM (SF-539 [11]) of 89% and a growth at 10 µM (OVCAR-4) of 37%. For the same compound, the GI50 (PC-3) was 3060 nM, the TGI (PC-3) was 13.4 µM and the CC50 (PC-3; [17]) was 66.9 µM. It also gave a growth at 10 µM (SNB-75) of 13%, a growth at 10 µM (SF-539 [12]) of -12% and a growth at 0.01 µM (HOP-62) of 93%. For the same compound, the growth at 0.1 µM (NCI/ADR-RES [13]) was 97%, the growth at 1 µM (A549 [14]) was 96% and the growth at 0.1 µM (MDA-MB-468 [15]) was 93%. It also gave a GI50 (NCI-H226) of 3130 nM, a TGI (NCI-H226) of 14.9 µM and a CC50 (NCI-H226) greater than 100 µM. The growth at 0.1 µM (HCT-15 [16]) was 98%, the GI50 (MDA-MB-435) was 340 nM and the TGI (MDA-MB-435) was 1330 nM. It also gave a CC50 (MDA-MB-435; [17]) of 7.6 µM, a GI50 (MDA-MB-468 [2]) of 1610 nM and a TGI (MDA-MB-468 [2]) of 7.34 µM. For the same compound, the CC50 (MDA-MB-468 [2]; [17]) was greater than 100 µM, the GI50 (NCI/ADR-RES [3]) was 1740 nM and the TGI (NCI/ADR-RES [3]) was 6.7 µM. For the same compound, the CC50 (NCI/ADR-RES [3]) was 97 µM, the GI50 (HCC 2998) was 3580 nM and the TGI (HCC 2998) was 26.7 µM. For the same compound, the CC50 (HCC 2998; [17]) was greater than 100 µM, the growth at 10 µM (SK-MEL-5) was 10% and the GI50 (A549 [4]) was 3640 nM. It also gave an LC50 (A549 [4]) of 53 µM and a TGI (A549 [4]) of 14.5 µM.
